Laboratory results as given in patent US20250361277A1, “PROTEASE-RESPONSIVE SURFACE-POTENTIAL-TUNABLE PEPTIDE CONSTRUCTS FOR SELECTIVE IMAGING AND ACCURATE INHIBITOR SCREENING” (The Regents of the University of California, priority 2024, published 2025).
Structures can show the parent of a compound that is named as a salt. Where two headings read alike, the source gives them in different places. No end group written: not given here.

Experiments:
TMPRSS2 [1] = molecular target: T1, TMPRSS2 (Homo sapiens, UniProt O15393); assay: TMPRSS2 inhibitor screening with EGTP in TMPRSS2-Vero cells (CLSM); design: effect of inhibitor on yellow fluorescence of EGTP: dose or concentration left out as unconfirmed; details: for effect of inhibitor on fluorescence intensity of EGTP: 100 nM inhibitor 1 h, 10 μM EGTP 1 h
T1 sequence (O15393 whole entry): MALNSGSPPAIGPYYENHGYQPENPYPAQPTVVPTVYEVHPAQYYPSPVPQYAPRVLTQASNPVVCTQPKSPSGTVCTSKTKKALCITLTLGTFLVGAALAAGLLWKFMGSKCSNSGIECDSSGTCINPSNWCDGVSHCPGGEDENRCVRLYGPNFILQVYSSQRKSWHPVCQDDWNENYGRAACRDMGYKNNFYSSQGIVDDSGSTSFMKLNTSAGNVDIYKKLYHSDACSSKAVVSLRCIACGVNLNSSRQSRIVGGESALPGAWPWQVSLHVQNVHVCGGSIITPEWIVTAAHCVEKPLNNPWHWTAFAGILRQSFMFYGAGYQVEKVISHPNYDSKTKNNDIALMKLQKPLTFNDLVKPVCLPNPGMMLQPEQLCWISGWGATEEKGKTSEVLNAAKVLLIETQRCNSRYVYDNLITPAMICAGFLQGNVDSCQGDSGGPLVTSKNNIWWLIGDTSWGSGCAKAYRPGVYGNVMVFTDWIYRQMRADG
Protocol: (§5) To further screen TMPRSS2 inhibitors with EGTP, Vero cells and TMPRSS2-Vero cells as robust cell models were chosen for cell imaging (FIG. 4a). Vero cells and TMPRSS2-Vero cells were incubated with different concentrations (1 mM, 5 mM, 10 mM, and 20 mM) of PyTPE and EGTP (Figures S23, S24, S25, and S26).
(§6) Incubation living cells with probes. For confocal laser scanning microscopy imaging, A549 cells, HeLa cells, MCF-7-GFP cells, Vero cells, and TMPRSS2-Vero cells were seeded into cell culture dishes at a density of 2.0×10^5 in growth medium (DMEM supplemented with 10% FBS, 200 mL). After overnight incubation, the cells were washed with phosphate-buffered saline (PBS, pH 7.4) three times. A solution of the indicated probe in PBS was then added, and the cells were incubated in a 5% CO2 atmosphere at 37° C. for further use. […] The supernatant was then discarded, and the cells were washed gently twice with PBS and fixed with 2% paraformaldehyde (PFA) at room temperature for 20 min prior to optical imaging.
(§7) Confocal laser scanning microscopy. […] A 405 nm laser was chosen for the excitation of AIEgens and the emission was collected at 550-620 nm. A 488 nm laser was chosen for the excitation of GFP (or MTG), the emission was collected at 500-530 nm. […] All fluorescence images were analyzed with an IMAGE™ software (Zeiss).

TMPRSS2 [2] = molecular target: T1, TMPRSS2; assay: Impact of protease inhibitors on EGTP fluorescence with TMPRSS2 in buffer; assay type: biochemical; design: expressed in transfected cells; host or cells: TMPRSS2-Vero cells
[3] = test system: A549 cells, HeLa cells, and MCF-7-GFP cells
Protocol: (§1) The TMPRSS2 selective imaging capability of EGTP was tested via the three different cell lines.
Cytotoxicity assay. […] The fluorescence of Resazurin solution at 690 nm using an excitation wavelength of 560 nm was recorded by a SYNERGY H1™ microplate reader (BioTek) with standard operation procedures.

[4] = test system: SARS-CoV-2 infected TMPRSS2-Vero cells; assay: SARS-CoV-2 infected TMPRSS2-Vero cells with PSGMR and Mpro inhibitor GC376 (CLSM); assay type: cell-based, SARS-CoV-2 (USA-WA1/2020)
Recombinant Mpro = Recombinant Mpro (Severe acute respiratory syndrome coronavirus 2, UniProt P0DTD1)
[5] = molecular target: Recombinant SARS-CoV-2 Mpro (Severe acute respiratory syndrome coronavirus 2, UniProt P0DTD1)
[6] = test system: SARS-CoV-2 infected TMPRSS2-Vero cells; assay type: cell-based, SARS-CoV-2 (USA-WA1/2020); details: for yellow and red fluorescence of infected cells: 10 μM probe; for red and yellow fluorescence and cell morphology of infected cells: PSGMR versus PMR
[7] = test system: noninfected TMPRSS2-Vero cells
[8] = test system: Mpro plasmid-transfected HEK 293T cells
[9] = test system: plasmid transfected HEK 293T cells; assay type: cell-based
[10] = DLS hydrodynamic size and zeta potential of PSGMR without and with Mpro; assay type: physicochemical
Protocol: To validate the enzyme digestion efficiency, PSGMR was incubated with different concentrations of Mpro. […] No increase in fluorescence was detected in the presence of the GC376, thus showing that the fluorescence increase was due to Mpro-mediated peptide cleavage. […] PSGMR was also treated under identical conditions with several commercial proteins to investigate probe specificity: papain-like protease, thrombin, bovine serum albumin, and hemoglobin. […] Dynamic light scattering (DLS) tests and transmission electron microscopy (TEM) of PSGMR were performed to de-termine the change of particle size and surface potential distribution after incubation with Mpro. The average hydro-dynamic size of PSGMR increased from 142 nm to 396 nm (FIG. 1h), and the mean zeta potential value decreased from 23.97 mV to 12.46 mV (FIG. 1i). […] This aggregation was confirmed by TEM (FIG. 1j). The 20 mM Tri-HCl buffer can lead to a uniform nanoparticle (˜78 nm) (Figure S18), and β-sheet structure of PSGMR was observed after incubation with Mpro or at high concentrations (Figures S19-S22).
The 1H and 13C NMR spectra were measured on a BRUKER ARX 300™ NMR spectrometer using chloroform-d (CDCl3-d) or dimethyl sulfoxide-d6 (DMSO-d6) as solvent and tetramethylsilane (TMS) as internal reference. Splitting patterns are reported as s (single), d (doublet), t (triplet), and m (multiplet). Peptides were synthesized using an AAPPTec ECLIPSE™ system through standard solid phase Fmoc syntheses on rink-amide resin. Electrospray ionization mass spectrometry (ESI-MS) data was acquired by using a MICROMASS QUATTRO ULTIMA™ mass spectrometer. High resolution mass spectra (HRMS) were recorded on a BRUKER MICROTOF II™ mass spectrometer system. High performance liquid chromatography (HPLC) was performed by using a SHIMADZU™ LC-40 HPLC system under the wavelength of 195 nm, 254 nm, and 405 nm. The sample was dissolved in water or acetonitrile, applied on a ZORBAX 300 BS™ C18 column (5 um, 9.4×250 mm) from Agilent, and eluted at 1.5 mL/min with a 40 min gradient from 10% to 95% solvent B where solvent A is water (0.05% TFA solution) and solvent B is acetonitrile (0.05% TFA solution). All products were purified by HPLC to reach a purity of 90%. UV-Vis absorption and fluorescence spectra were performed on a SYNERGY H1™ microplate reader (BioTek). Confocal laser scanning microscopy images were obtained on a Zeiss LSM880 confocal laser scanning microscope (Zeiss). Dynamic light scattering (DLS) measurements were performed on a NANO-ZS90 ZETASIZER™ (Malvern) to determine hydrodynamic sizes and zeta potential values of the nanosystems studied. Transmission electron microscopy (TEM) images were acquired using an FEI TECNAI F20™ instrument at an operation voltage of 200 kV.

TMPRSS2 [11] = molecular target: T1, TMPRSS2; assay: Enzymatic fluorescence assay of probes with TMPRSS2; assay type: biochemical; design: expressed in transfected cells; host or cells: TMPRSS2-Vero cells; details: Tris-HCl buffer with 1% DMSO, excitation 405 nm
Protocol: Recombinant TMPRSS2 was added into the working solution and then diluted to a total of 100 μl with the same Tris-HCl buffer. The reaction mixture was incubated at 37° C. for 1 h for UV-Vis absorption and fluorescence measurement. The solution was excited at 405 nm, and the emission was collected from 430 nm to 800 nm.

A549 cells = assay: CLSM imaging of A549 cells (TMPRSS2 low expression); assay type: cell-based; details: 10 μM probe, 1 h
Protocol: (§2) TMPRSS2 selective imaging in cancer cells with EGTP.
(§3) Incubation living cells with probes.
(§4) Confocal laser scanning microscopy.

TMPRSS2 [12] = molecular target: T1, TMPRSS2; assay: Cleavage of probes by recombinant TMPRSS2 (HPLC and ESI-MS); assay type: biochemical; details: incubation for 1 h at 37° C. in 20 mM Tris-HCl buffer (pH 8.0)
HeLa cells = assay type: cell-based
Protocol: as §1

MCF-7-GFP cells = assay: CLSM imaging of MCF-7-GFP cells (TMPRSS2 high expression); assay type: cell-based; details: 10 μM probe, 1 h
Protocol: as §2, §3, §4

Vero cells = assay: CLSM imaging of Vero cells; details: 1, 5, 10, 20 mM as printed, 1 h
TMPRSS2-Vero cells = assay type: cell-based
Protocol: as §5, §6, §7

[13] = 10 μM PSGMR, increasing GC376 (2-12 μM)

CN(C)C(=O)COC(=O)Cc1ccc(OC(=O)c2ccc(NC(=N)N)cc2)cc1 [Camostat, camostat mesylate]
effect of inhibitor on yellow fluorescence of EGTP (TMPRSS2 [1]; Camostat before adding EGTP): gradually decreased
effect of inhibitor on fluorescence of EGTP with TMPRSS2 incubation (TMPRSS2 [2]): significantly reduced fluorescence of EGTP

C#CC[C@H](NC(=O)CNC(=O)CNC(=O)[C@H](CCCNC(=N)N)NC(=O)[C@H](C)NC(=O)[C@H](CCC(N)=O)NC(=O)CNC(=O)CNC(=O)CNC(=O)[C@H](CCC(=O)O)NC(=O)[C@H](CCC(=O)O)NC(=O)[C@H](CCC(=O)O)NC(=O)[C@H](CCC(=O)O)NC(=O)[C@H](CCC(=O)O)NC(=O)[C@H](CCC(=O)O)NC(=O)[C@H](CCC(=O)O)NC(=O)[C@H](CCC(=O)O)NC(=O)[C@@H](N)CCC(=O)O)C(N)=O [EGT, EEEEEEEEEGGGQAR (SEQ ID NO:4)]
toxicity to cells ([3]; 1 μM to 20 μM, 48 h): negligible toxicity

CC(C)C[C@H](NC(=O)OCc1ccccc1)C(=O)N[C@@H](C[C@@H]1CCNC1=O)C(O)S(=O)(=O)[O-].[Na+] (stereo partly drawn) [GC376]
effect of inhibitor on fluorescence intensity of EGTP (TMPRSS2 [1]): no significant effect on the fluorescence intensity of EGTP
red and yellow fluorescence with inhibitor ([4]; 10 μM PSGMR and 2 μM, 6 μM, and 12 μM GC376): markedly decreased
average red fluorescence intensity, decrease [4, 13]: 32.6 to 11.6 times
average yellow fluorescence intensity, decrease [4, 13]: 5.8 to 3.6 times

Cc1ccc(N)cc1C(=O)N[C@H](C)c1cccc2ccccc12 [GRL0617]
effect of inhibitor on fluorescence intensity of EGTP (TMPRSS2 [1]): no significant effect on the fluorescence intensity of EGTP

(Pra)GSAVLQ/SGFRKMAGRRRRRR [PMR]
aggregation and fluorescence on incubation with Mpro (time-dependent spectra) (Recombinant Mpro): can easily aggregate with strong fluorescence
fluorescence intensity after incubation with Mpro (Recombinant Mpro): weaker than that of PSGMR
cleavage by Mpro [5]: can be cleaved by M^pro
cleavage by Mpro ([5]; pH 8): can be cleaved by Mpro between Q and S
killing / inhibition of infected cells [6]: can also inhibit infected cells
yellow and red fluorescence of infected cells [6]: weaker than that of PSGMR
red and yellow fluorescence and cell morphology of infected cells [6]: less than the infected cells with PSGMR

(Pra)KLVFFGGGSAVLQ/SGFRKMAGGGRRRRRR [PSGMR]
aggregation and fluorescence on incubation with Mpro (time-dependent spectra) (Recombinant Mpro): can aggregate easily with strong fluorescence
fluorescence intensity with different concentrations of Mpro (Recombinant Mpro): gradually enhanced with in-creasing Mpro concentration
probe specificity: fluorescence intensity with different proteins (Recombinant Mpro): clearly enhanced selectively with Mpro
time to fluorescence plateau at 590 nm (Recombinant Mpro): ≤ 20 min
red and yellow fluorescence and cell morphology of noninfected cells [7]: weak red and yellow fluorescence with normal cell morphology
cleavage by Mpro ([5]; pH 8): can be cleaved by Mpro between Q and S
killing / inhibition of infected cells [6]: can selectively kill SARS-CoV-2-infected cells
yellow (probe) and red (PI) fluorescence in infected cells [6]: strong yellow and red fluorescence
yellow and red fluorescence of infected cells [6]: significantly enhanced
average red fluorescence intensity of infected cells, higher than with PMR ([6]; PI channel): 600%
red and yellow fluorescence and cell morphology of infected cells [6]: bright red and yellow fluorescence with obvious cell mor-phologic dilatation
average yellow fluorescence intensity of infected cells, higher than with PMR ([6]; probe channel): 569%
cell viability after incubation with probe ([8]; Mpro plasmid-transfected cells): decreased
cytotoxicity (metabolic activity) ([8]; Mpro plasmid, higher concentration of 10 μM, 48 h): obviously cytotoxic
fluorescence of FLIPGFP, PSGMR [9]: weak green and yellow fluo-rescence
fluorescence of FLIPGFP, PSGMR and PI [9]: Strong green, yellow and red fluorescence
green, red and yellow fluorescence intensities with incubation time [9]: markedly enhanced with the longer incubation time
high concentration that caused significant cytotoxicity (HEK 293T cells; HEK 293T cells, 48 h): 40 µM
average hydrodynamic size ([10]; after incubation with Mpro): 396 nm
mean zeta potential value ([10]; after incubation with Mpro): 12.46 mV
average hydrodynamic size ([10]; before incubation with Mpro): 142 nm
mean zeta potential value ([10]; before incubation with Mpro): 23.97 mV

(Pra)KLVFFGSAVLQ/SGFRKMARRRRRR [PSMR]
aggregation and fluorescence on incubation with Mpro (time-dependent spectra) (Recombinant Mpro): cannot aggregate with weak fluorescence
fluorescence intensity after incubation with Mpro (Recombinant Mpro): decreased upon incubation with Mpro
cleavage by Mpro ([5]; pH 8): not

AVLQFFVLKC [AVLQFFVLKC (SEQ ID NO:12)]
cleavage by Mpro [5]: not cleaved by Mpro

CGAVLQDDD [CGAVLQDDD (SEQ ID NO: 11)]
cleavage by Mpro [5]: not cleaved by Mpro

TGP: control probe without polyglutamic acid: peptide QARGG (SEQ ID NO:2) linked by Propargylglycine (Pra) to the dye PyTPE (also: linked by Pra to dye PyTPE, end not given here)
fluorescence intensity after incubation with TMPRSS2 (comparison of probes) (TMPRSS2 [11]): stronger than that of EGTP and EGEP
yellow fluorescence in A549 cells (A549 cells): strong yellow fluorescence
cleavage by TMPRSS2 (TMPRSS2 [12]): can be cleaved by TMPRSS2
yellow fluorescence in HeLa cells (HeLa cells; 10 μM probe, 1 h): strong yellow fluorescence
yellow fluorescence in MCF-7-GFP cells (MCF-7-GFP cells): strong yellow fluorescence

TetraPhenylEthene Pyridinium [PyTPE]
concentration that can cause significant cytotoxicity [3]: > 5 µM
cytotoxicity (metabolic activity) [3]: obviously cytotoxic
yellow fluorescence in Vero cells (Vero cells): enhanced with increasing concentrations
overlap of yellow fluorescence with Mito tracker green (MTG) (HeLa cells): overlapped well with the green fluorescence of MTG
yellow fluorescence in TMPRSS2-Vero cells (TMPRSS2-Vero cells): enhanced with increasing concentrations
cytotoxicity (metabolic activity) (HEK 293T cells): obviously cytotoxic
high concentration that caused significant cytotoxicity (HEK 293T cells): 20 µM
